US20240270821A1, “GIP/GLP1/GCG TRI-RECEPTOR AGONISTS AND USES THEREOF” (priority 2023, published 2024)
Read-outs that look alike come from different tables or passages of the source. Starred links: 1 amine or outer side, 2 acyl side, 3 side chain; linkers in the order of their positions; H or OH if unused. Non-standard residues stand in square brackets, D forms with d. Groups on a side chain read outwards from the residue. *: point of attachment. C18 diacid = O=C(O)CCCCCCCCCCCCCCCCC(=O)*; αMePhe(2-F) = C[C@](N)(Cc1ccccc1F)C(=O)O; γGlu = O=C(O)[C@H](CCC(=O)[*:2])N[*:1]; αMe4Pal = C[C@](N)(Cc1ccncc1)C(=O)O; αMeY = C[C@](N)(Cc1ccc(O)cc1)C(=O)O; 4Pal = N[C@@H](Cc1ccncc1)C(=O)O; αMeL = CC(C)C[C@](C)(N)C(=O)O; Orn = NCCC[C@H](N)C(=O)O; Aib = CC(C)(N)C(=O)O

Experiments:
hGcgR = hGcgR (Homo sapiens, UniProt P47871); assay: Functional cAMP activation in the presence of 0.1% casein (no HSA); format: cell-based; details: read-out: Relative cAMP EC50, hGcgR;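 further: intracellular cAMP rise after 30 min at 37 °C, read by HTRF against a cAMP standard curve, scaled from buffer only (0%) to maximal control ligand response (100%)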
hGLP-1R [1] = molecular target: T1, hGLP-1R (Homo sapiens, UniProt P43220); assay: as above; format: cell-based; details: read-out: Relative cAMP EC50, hGLP-1R;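 further: intracellular cAMP rise after 30 min at 37 °C read by HTRF, normalized between buffer only (0%) and maximal control ligand (100%), four-parameter variable-slope fit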
hGIPR [2] = molecular target: T2, hGIPR (Homo sapiens, UniProt P48546); assay: Functional cAMP activity in the presence of 1% HSA; format: cell-based; details: read-out: cAMP Rel EC50, hGIPR
T2 sequence (P48546 22-466): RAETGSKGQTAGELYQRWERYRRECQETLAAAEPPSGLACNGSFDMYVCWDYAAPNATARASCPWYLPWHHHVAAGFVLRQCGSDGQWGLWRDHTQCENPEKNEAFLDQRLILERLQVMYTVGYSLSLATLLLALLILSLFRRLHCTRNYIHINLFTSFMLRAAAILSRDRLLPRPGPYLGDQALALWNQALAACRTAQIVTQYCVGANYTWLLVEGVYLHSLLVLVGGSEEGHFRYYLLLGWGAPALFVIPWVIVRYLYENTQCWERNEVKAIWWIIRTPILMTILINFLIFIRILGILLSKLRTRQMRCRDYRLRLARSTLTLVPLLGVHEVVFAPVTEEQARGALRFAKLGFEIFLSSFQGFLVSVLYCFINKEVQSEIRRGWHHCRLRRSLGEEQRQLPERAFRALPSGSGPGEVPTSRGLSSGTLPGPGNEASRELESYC

human GcgR = human GcgR (Homo sapiens, UniProt P47871); assay: Functional cAMP activity in the presence of 1% HSA; format: cell-based; details: read-out: cAMP Rel EC50, hGcgR
[3] = Pepsin stability assay in simulated gastric fluid; format: in vitro ADME; details: pH 1.2, % Intact (SD)
Description: A pepsin stability assay is utilized to determine the relative stability of Example polypeptides in a simulated gastric proteolytic environment. […] The relative amount of intact peptide is quantified by mass spectrometry (MS). […] The examples were dissolved in 50 mM Tris buffer pH 8.0 at a concentration of 10 mg/mL as a stock solution. Pepsin A was reconstituted in SGF at 10 mg/mL. […] The example peptide and pepsin solutions were then incubated at 37° C. in a shaking incubator set at 100 rpm. Samples (25 μL) were withdrawn at different time intervals and quenched with 100 mM ammonium bicarbonate pH 9 (50 μL) to stop proteolytic activity. All samples were centrifuged, and the supernatants were analyzed by LC/MS to determine the remaining intact peptide.

hGIPR [4] = molecular target: T2, hGIPR; assay: Functional cAMP activation in the presence of 0.1% casein (no HSA); format: cell-based; details: read-out: Relative cAMP EC50, hGIPR;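 on Relative cAMP EC50, hGIPR: intracellular cAMP rise after 30 min at 37 °C read by HTRF against a standard curve, scaled between buffer alone (0%) and top control ligand concentration (100%), four-parameter fit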;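 on Relative cAMP EC50, hGLP-1R: intracellular cAMP rise after 30 min at 37 °C read by HTRF, normalized between buffer only (0%) and maximal control ligand (100%), four-parameter variable-slope fit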
hGLP-1R [5] = molecular target: T1, hGLP-1R; assay: Functional cAMP activity in the presence of 1% HSA; format: cell-based; details: read-out: cAMP Rel EC50, hGLP-1R
[6] = tested on: Intestinal organoid from Göttingen minipig jejunum tissue, 2D monolayer; assay: Cell based in vitro permeability (Papp) assay; format: in vitro ADME
How it was run: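 Papp calculated from LC/MS peptide levels in apical and basal compartments. Basal sampling at 20 min with C10 present, across monolayers grown from dissociated minipig jejunal organoids in transwells.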

[7] = Body weight in diet-induced obese C57BL/6 mice; format: in vivo; details: 10 nmol/kg SC QD, 7 days, percent of starting weight, DIO mice, mean ± SEM n=5
How it was run: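 Daily weighing gave body weight as percent of starting value (mean±SEM, n=5) over 9-16 days of SC dosing, once daily or every 3 days, shortly before lights-off. Animals were weight-randomized male C57BL/6 DIO mice, 41-50 g, fed ad libitum on a calorie-rich diet.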

human GLP1-R = human GLP1-R (Homo sapiens, UniProt P43220); assay: GLP1-R internalization assay in HEK293 cells; format: cell-based; details: for EC50: HEK293 cells expressing SNAP-GLP-1R, read-out: GLP1R Internalization EC50; for Internalization % TOP: normalized to maximum concentration of GLP-1 (100%)
in vivo [8] = assay: in vivo; design: species or system cynomolgus monkeys; details: both sexes, cynomolgus monkey, iv, 10 nmol/kg
Description: (§1) A study is designed to evaluate the oral bioavailability of Example polypeptides in cynomolgus monkeys. […] Standards and controls are prepared in cynomolgus monkey plasma, and any dilutions required to bring samples into the quantitative range are also performed in control cynomolgus monkey plasma. To control assay variability, an internal standard (IS) is added to all the standards and samples. The Examples and IS are extracted from 100% monkey plasma (50 μL) by protein precipitation using isopropyl alcohol and methanol (50:50 v/v). The samples are then centrifuged (3000 rpm for 10 minutes) and the supernatant is transferred to a Siricco Protein Precipitation Plate. The samples are loaded on a Sep-Pak tC18 SPE microelution plate that is conditioned with 2% formic acid in acetonitrile and water. The compounds are then washed with 2% formic acid in water and eluted using 2% formic acid in acetonitrile into a plate containing 5× Invitrosol and 1% formic acid in water prior to injecting an aliquot (10 μL) on to Xselect CSH C18, 3.5 μm, 2.1×20 mm for LC/MS analysis.
Blood samples are collected over 504 hours. Plasma is harvested from blood samples by centrifugation and stored frozen (−70° C.) until analysis. Plasma concentrations of the molecules are detected using the bioanalytical method described above.

in vivo [9] = assay: in vivo; design: species or system cynomolgus monkeys; details: both sexes, cynomolgus monkey, po; for bioavailability: 10 mg; for AUC(0-inf) / CL/F / Cmax / Tmax / half-life: 300 mg
Description: as §1
[…] Blood samples are collected up to 504 hours post-dose. Plasma is harvested from blood samples by centrifugation and stored frozen (−70° C.) until analysis. Plasma concentrations of the molecules are detected using the bioanalytical method described above.

[10] = in the presence of 0.1% casein (no HSA), geometric mean

hGcgR, sequence (P47871 26-477): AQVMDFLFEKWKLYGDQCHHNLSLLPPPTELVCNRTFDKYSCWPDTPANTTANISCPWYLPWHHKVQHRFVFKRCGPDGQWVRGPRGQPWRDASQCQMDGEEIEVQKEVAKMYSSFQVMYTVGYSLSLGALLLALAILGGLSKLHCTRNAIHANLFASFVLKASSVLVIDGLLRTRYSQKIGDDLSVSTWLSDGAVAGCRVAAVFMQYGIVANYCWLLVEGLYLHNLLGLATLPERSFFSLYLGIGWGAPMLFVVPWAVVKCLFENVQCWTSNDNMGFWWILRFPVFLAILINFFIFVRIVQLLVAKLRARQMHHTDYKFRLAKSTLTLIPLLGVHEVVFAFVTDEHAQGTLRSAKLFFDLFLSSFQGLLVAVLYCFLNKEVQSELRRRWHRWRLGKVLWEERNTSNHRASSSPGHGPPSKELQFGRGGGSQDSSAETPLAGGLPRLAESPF
human GcgR, sequence (P47871 26-477): as above
T1 sequence (P43220 24-463): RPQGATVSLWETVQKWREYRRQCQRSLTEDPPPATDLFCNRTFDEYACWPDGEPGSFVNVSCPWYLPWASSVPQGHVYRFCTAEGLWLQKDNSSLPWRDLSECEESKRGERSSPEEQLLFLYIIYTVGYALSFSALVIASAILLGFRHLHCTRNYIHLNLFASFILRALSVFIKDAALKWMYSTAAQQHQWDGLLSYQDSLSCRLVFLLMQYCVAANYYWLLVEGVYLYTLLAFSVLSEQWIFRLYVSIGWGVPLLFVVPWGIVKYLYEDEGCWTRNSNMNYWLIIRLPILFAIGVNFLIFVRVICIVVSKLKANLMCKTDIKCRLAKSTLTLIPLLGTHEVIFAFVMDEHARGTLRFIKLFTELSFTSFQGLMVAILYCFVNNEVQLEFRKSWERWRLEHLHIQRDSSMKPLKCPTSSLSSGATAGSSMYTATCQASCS
human GLP1-R, sequence (P43220 24-463): as above

Compound | EC50 (hGcgR) | EC50 (hGLP-1R [1]) | EC50 (hGIPR [2]) | EC50 (human GcgR) | EC50 (hGIPR [4]) | EC50 (hGLP-1R [5]) | EC50 (hGcgR; [10]) | EC50 (human GLP1-R) | Internalization % TOP (human GLP1-R) | EC50 (hGLP-1R [1]; [10]) | EC50 (hGIPR [4]; [10]) | AUC(0-inf) (in vivo [8]) | clearance (in vivo [8]) | half-life (in vivo [8]) | bioavailability (in vivo [9]) | AUC(0-inf) (in vivo [9]) | CL/F (in vivo [9]) | Cmax (in vivo [9]) | Tmax (in vivo [9]) | half-life (in vivo [9]) | further results
CC[C@H](C)[C@H](NC(=O)[C@H](CC(C)C)NC(=O)[C@](C)(Cc1ccc(O)cc1)NC(=O)[C@@H](CCC(=O)O)NC(=O)[C@@H](NC(=O)[C@H](Cc1ccccc1)NC(=O)[C@H](CCC(=O)O)NC(=O)[C@](C)(Cc1ccncc1)NC(=O)[C@H](CCC(N)=O)NC(=O)[C@H](C)NC(=O)[C@H](CCCCNC(=O)CC[C@H](NC(=O)CC[C@H](NC(=O)CCCCCCCCCCCCCCCCC(=O)O)C(=O)O)C(=O)O)NC(=O)[C@H](CCCN)NC(=O)[C@H](CC(=O)O)NC(=O)[C@H](CC(C)C)NC(=O)[C@](C)(CC(C)C)NC(=O)[C@@H](NC(=O)[C@](C)(CO)NC(=O)[C@H](Cc1ccncc1)NC(=O)[C@H](CC(=O)O)NC(=O)[C@H](CO)NC(=O)[C@@H](NC(=O)[C@](C)(Cc1ccccc1F)NC(=O)[C@@H](NC(=O)CNC(=O)[C@H](CCC(N)=O)NC(=O)C(C)(C)NC(=O)[C@@H](N)Cc1ccc(O)cc1)[C@@H](C)O)[C@@H](C)O)[C@@H](C)CC)[C@@H](C)CC)C(=O)N[C@@H](CCC(=O)O)C(=O)NCC(=O)NCC(=O)N1CCC[C@H]1C(=O)N[C@@H](CO)C(=O)N[C@@H](CO)C(=O)NCC(=O)N[C@@H](C)C(=O)N1CCC[C@H]1C(=O)N1CCC[C@H]1C(=O)N1CCC[C@H]1C(=O)N[C@@H](CO)C(=O)NCC(=O)N[C@@H](CO)C(N)=O [Example 700] | 1.31 nM | 0.245 nM | 0.397 nM | 132 nM | 0.00758 nM | 20 nM |  |  |  |  |  |  |  |  |  |  |  |  |  |  | remaining at 0.25 h, 0.4 mg/mL [3]: 89.9%; remaining at 0.5 h, 0.4 mg/mL [3]: 106%; remaining at 1 h, 0.4 mg/mL [3]: 98.9%; Relative Papp (Compared to internal standard) [6]: 0.29; Body weight (%) [7]: 75.9 ± 3.77 %
H-Y[Aib]QGTFTSD[4Pal]SQ[αMeL]LDKK([γGlu-γGlu-C18 diacid])AQ[αMe4Pal]AFIEYLIAGGPSSGAPPPSGE-NH2 [Example 883] |  |  | 9.41 nM | 578 nM |  | 120 nM | 4.02 nM | 23.9 nM | 77.1% | 1.05 nM | 0.0779 nM | 8.69 ± 0.623 µM·h | 0.0192 mL/min/kg | 62.8 ± 53.9 h | 0.3% | 1.28 µM·h | 11.1 mL/min/kg | 43.6 nM | 2 h | 29 h | 
H-Y[Aib]QGTFTSD[4Pal]SQ[αMeL]LD[Orn]K([γGlu-γGlu-C18 diacid])AQ[αMe4Pal]AFIE[αMeY]LIEGGPSSGEPPPSGSEE-NH2 [Example 1027] |  |  | 58.1 nM | 1470 nM |  | 252 nM | 4.99 nM |  |  | 1.23 nM | 0.208 nM | 8.57 ± 1.55 µM·h | 0.02 mL/min/kg | 76.4 ± 31.4 h | 1.2% | 5.07 µM·h | 2.77 mL/min/kg | 135 nM | 2.5 h | 55.7 h | 
H-Y[Aib]QGT[αMePhe(2-F)]TSD[4Pal]SILLDKK([γGlu-γGlu-C18 diacid])AQ[Aib]AFIEYLEEGGPSSGAPPPSGTGE-NH2 [Example 510] | 5.44 nM | 0.71 nM | 6.4 nM | 564 nM | 0.0627 nM | 74.2 nM |  | 11.8 nM | 113% |  |  | 14.5 ± 3.42 µM·h | 0.0119 mL/min/kg | 55.9 ± 13.2 h | 0.7% | 5.09 µM·h | 5.17 mL/min/kg | 126 nM | 2 h | 47 h | 
